Reference: publication PMC6270420, “Antibacterial Activity of Salicylanilide 4-(Trifluoromethyl)benzoates” (Molecules, 2013)
Converted amounts (≈) assume the structure as drawn. Like-named read-outs stand apart in the source and are kept apart here.

Experiments:
Mtb. 7357/1988 = assay: microbe, parasite or virus in culture; format: cell-based; details: Mycobacterium tuberculosis, read-out: MIC Mtb. 7357/1988
[1] = system: Mycobacterium tuberculosis 331/88 (H37Rv); assay: Antimycobacterial MIC micromethod, Šula's medium; format: cell-based
Mtb. 9449/2006 = assay: microbe, parasite or virus in culture; format: cell-based; details: Mycobacterium tuberculosis, read-out: MIC Mtb. 9449/2006
Mtb. Praha 131 (XDR-TB) = assay: microbe, parasite or virus in culture; format: cell-based; details: Mycobacterium tuberculosis, read-out: MIC Mtb. Praha 131 (XDR-TB)
[2] = system: Mycobacterium avium 330/88; assay: Antimycobacterial MIC micromethod; format: cell-based
[3] = system: Mycobacterium kansasii 235/80; assay: Antimycobacterial MIC micromethod; format: cell-based; details: read-out: MIC M. kansasii 235/80
[4] = system: M. kansasii 6509/96 (clinically isolated strain); assay: Antimycobacterial MIC micromethod; format: cell-based; details: Mycobacterium kansasii, read-out: MIC M. kansasii 6509/96
[5] = biological target: T1, mycobacterial isocitrate lyase (ICL1, Rv0467) (Mycobacterium tuberculosis, UniProt P9WKK7); assay: Isocitrate lyase inhibition assay (ICL1); format: biochemical, Mycobacterium tuberculosis H37Rv; details: 10 μmol/L; read-out: % ICL inhibition at 10 μmol/L (± standard deviation)
T1 construct: His tag (from pET-28b(+)); made in house; host or cells: E. coli BL21(DE3), pET-28b(+) plasmid
T1 sequence (P9WKK7 1-428): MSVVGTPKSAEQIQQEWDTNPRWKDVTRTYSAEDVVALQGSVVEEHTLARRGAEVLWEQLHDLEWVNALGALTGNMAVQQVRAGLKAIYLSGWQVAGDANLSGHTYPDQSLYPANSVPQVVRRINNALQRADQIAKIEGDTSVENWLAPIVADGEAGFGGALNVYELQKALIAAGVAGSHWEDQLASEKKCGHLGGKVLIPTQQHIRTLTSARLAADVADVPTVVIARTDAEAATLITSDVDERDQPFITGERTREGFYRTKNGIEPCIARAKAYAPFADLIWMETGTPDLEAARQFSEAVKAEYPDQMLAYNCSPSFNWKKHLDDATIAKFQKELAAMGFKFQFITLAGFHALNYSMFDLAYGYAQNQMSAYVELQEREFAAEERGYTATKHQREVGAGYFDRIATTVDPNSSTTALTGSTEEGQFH

Mtb. Praha 1 = assay: microbe, parasite or virus in culture; format: cell-based; details: Mycobacterium tuberculosis, read-out: MIC Mtb. Praha 1
Mtb. 53/2009 = assay: microbe, parasite or virus in culture; format: cell-based; details: Mycobacterium tuberculosis, read-out: MIC Mtb. 53/2009
Mtb. 234/2005 = assay: microbe, parasite or virus in culture; format: cell-based; details: Mycobacterium tuberculosis, read-out: MIC Mtb. 234/2005
[6] = 336 h, 14 d, read-out: MIC Mtb. 331/88
[7] = 504 h, 21 d, read-out: MIC Mtb. 331/88

| SMILES | MIC (Mtb. 7357/1988; 336 h) [µM] | MIC (Mtb. 7357/1988; 504 h) [µM] | MIC [1, 6] [µM] | MIC [1, 7] [µM] | MIC (Mtb. 9449/2006; 336 h) [µM] | MIC (Mtb. 9449/2006; 504 h) [µM] | MIC (Mtb. Praha 131 (XDR-TB); 336 h) [µM] | MIC (Mtb. Praha 131 (XDR-TB); 504 h) [µM] | MIC ([2]; 330/88, 336 h, 14 d) [µM] | MIC ([2]; 330/88, 504 h, 21 d) [µM] | MIC ([3]; 235/80, 168 h, 7 d) [µM] | MIC ([3]; 235/80, 336 h, 14 d) [µM] | MIC ([3]; 235/80, 504 h, 21 d) [µM] | MIC ([4]; 168 h, 7 d) [µM] | MIC ([4]; 336 h, 14 d) [µM] | MIC ([4]; 504 h, 21 d) [µM] | inhibition at 10 µM [5] [%] | MIC (Mtb. Praha 1; 336 h) [µM] | MIC (Mtb. Praha 1; 504 h) [µM] | MIC (Mtb. 53/2009; 336 h) [µM] | other results |
| --- | --- | --- | --- | --- | --- | --- | --- | --- | --- | --- | --- | --- | --- | --- | --- | --- | --- | --- | --- | --- | --- |
| O=C(Oc1ccc(Cl)cc1C(=O)Nc1cccc(Cl)c1)c1ccc(C(F)(F)F)cc1 [1a] | 4 (≈ 1.82 µg/mL) | 4 (≈ 1.82 µg/mL) | 2 (≈ 0.908 µg/mL) | 4 (≈ 1.82 µg/mL) | 4 (≈ 1.82 µg/mL) | 4 (≈ 1.82 µg/mL) | 4 (≈ 1.82 µg/mL) | 4 (≈ 1.82 µg/mL) | 8 (≈ 3.63 µg/mL) | 16 (≈ 7.27 µg/mL) | 0.5 (≈ 0.227 µg/mL) | 2 (≈ 0.908 µg/mL) | 4 (≈ 1.82 µg/mL) | 2 (≈ 0.908 µg/mL) | 8 (≈ 3.63 µg/mL) | 8 (≈ 3.63 µg/mL) | 18 ± 1.9 | 4 (≈ 1.82 µg/mL) | 4 (≈ 1.82 µg/mL) | 4 (≈ 1.82 µg/mL) | MIC (Mtb. 53/2009; 504 h): 4 µM (≈ 1.82 µg/mL); MIC (Mtb. 234/2005; 336 h): 4 µM (≈ 1.82 µg/mL); MIC (Mtb. 234/2005; 504 h): 4 µM (≈ 1.82 µg/mL) |
| O=C(Oc1ccc(Cl)cc1C(=O)Nc1ccc(Cl)cc1)c1ccc(C(F)(F)F)cc1 [1c] | 2 (≈ 0.908 µg/mL) | 2 (≈ 0.908 µg/mL) | 2 (≈ 0.908 µg/mL) | 2 (≈ 0.908 µg/mL) | 2 (≈ 0.908 µg/mL) | 2 (≈ 0.908 µg/mL) | 2 (≈ 0.908 µg/mL) | 2 (≈ 0.908 µg/mL) | 4 (≈ 1.82 µg/mL) | 8 (≈ 3.63 µg/mL) | 1 (≈ 0.454 µg/mL) | 2 (≈ 0.908 µg/mL) | 2 (≈ 0.908 µg/mL) | 1 (≈ 0.454 µg/mL) | 4 (≈ 1.82 µg/mL) | 4 (≈ 1.82 µg/mL) | 12 ± 2.7 | 2 (≈ 0.908 µg/mL) | 2 (≈ 0.908 µg/mL) | 4 (≈ 1.82 µg/mL) | MIC (Mtb. 53/2009; 504 h): 4 µM (≈ 1.82 µg/mL); MIC (Mtb. 234/2005; 336 h): 4 µM (≈ 1.82 µg/mL); MIC (Mtb. 234/2005; 504 h): 4 µM (≈ 1.82 µg/mL) |
| O=C(Oc1cc(Cl)ccc1C(=O)Nc1ccc(Cl)cc1)c1ccc(C(F)(F)F)cc1 [1d] | 4 (≈ 1.82 µg/mL) | 4 (≈ 1.82 µg/mL) | 4 (≈ 1.82 µg/mL) | 4 (≈ 1.82 µg/mL) | 4 (≈ 1.82 µg/mL) | 4 (≈ 1.82 µg/mL) | 2 (≈ 0.908 µg/mL) | 4 (≈ 1.82 µg/mL) | 4 (≈ 1.82 µg/mL) | 8 (≈ 3.63 µg/mL) | 1 (≈ 0.454 µg/mL) | 4 (≈ 1.82 µg/mL) | 4 (≈ 1.82 µg/mL) | 1 (≈ 0.454 µg/mL) | 4 (≈ 1.82 µg/mL) | 4 (≈ 1.82 µg/mL) | 12 ± 2.3 | 2 (≈ 0.908 µg/mL) | 4 (≈ 1.82 µg/mL) | 4 (≈ 1.82 µg/mL) | MIC (Mtb. 53/2009; 504 h): 4 µM (≈ 1.82 µg/mL); MIC (Mtb. 234/2005; 336 h): 4 µM (≈ 1.82 µg/mL); MIC (Mtb. 234/2005; 504 h): 4 µM (≈ 1.82 µg/mL) |
| O=C(Oc1ccc(Cl)cc1C(=O)Nc1ccc(Br)cc1)c1ccc(C(F)(F)F)cc1 [1i] | 2 (≈ 0.997 µg/mL) | 4 (≈ 1.99 µg/mL) | 2 (≈ 0.997 µg/mL) | 2 (≈ 0.997 µg/mL) | 2 (≈ 0.997 µg/mL) | 4 (≈ 1.99 µg/mL) | 2 (≈ 0.997 µg/mL) | 2 (≈ 0.997 µg/mL) | 8 (≈ 3.99 µg/mL) | 8 (≈ 3.99 µg/mL) | 1 (≈ 0.499 µg/mL) | 4 (≈ 1.99 µg/mL) | 8 (≈ 3.99 µg/mL) | 2 (≈ 0.997 µg/mL) | 8 (≈ 3.99 µg/mL) | 8 (≈ 3.99 µg/mL) | 18 ± 1.2 | 2 (≈ 0.997 µg/mL) | 2 (≈ 0.997 µg/mL) | 4 (≈ 1.99 µg/mL) | MIC (Mtb. 53/2009; 504 h): 4 µM (≈ 1.99 µg/mL); MIC (Mtb. 234/2005; 336 h): 2 µM (≈ 0.997 µg/mL); MIC (Mtb. 234/2005; 504 h): 2 µM (≈ 0.997 µg/mL) |
| O=C(Oc1cc(Cl)ccc1C(=O)Nc1cccc(F)c1)c1ccc(C(F)(F)F)cc1 [1l] |  |  | 4 (≈ 1.75 µg/mL) | 4 (≈ 1.75 µg/mL) |  |  |  |  | 8 (≈ 3.5 µg/mL) | 16 (≈ 7 µg/mL) | 4 (≈ 1.75 µg/mL) | 8 (≈ 3.5 µg/mL) | 8 (≈ 3.5 µg/mL) | 8 (≈ 3.5 µg/mL) | 8 (≈ 3.5 µg/mL) | 16 (≈ 7 µg/mL) | ≥ 20 |  |  |  |  |
| O=C(Oc1cc(Cl)ccc1C(=O)Nc1ccc(F)cc1)c1ccc(C(F)(F)F)cc1 [1n] |  |  | 4 (≈ 1.75 µg/mL) | 8 (≈ 3.5 µg/mL) |  |  |  |  | 4 (≈ 1.75 µg/mL) | 4 (≈ 1.75 µg/mL) | 2 (≈ 0.876 µg/mL) | 8 (≈ 3.5 µg/mL) | 8 (≈ 3.5 µg/mL) | 4 (≈ 1.75 µg/mL) | 8 (≈ 3.5 µg/mL) | 8 (≈ 3.5 µg/mL) | 17 ± 1.3 |  |  |  |  |
| O=C(Oc1ccc(Cl)cc1C(=O)Nc1cccc(C(F)(F)F)c1)c1ccc(C(F)(F)F)cc1 [1q] |  |  | 2 (≈ 0.976 µg/mL) | 2 (≈ 0.976 µg/mL) |  |  |  |  | 4 (≈ 1.95 µg/mL) | 16 (≈ 7.8 µg/mL) | 2 (≈ 0.976 µg/mL) | 4 (≈ 1.95 µg/mL) | 8 (≈ 3.9 µg/mL) | 1 (≈ 0.488 µg/mL) | 4 (≈ 1.95 µg/mL) | 8 (≈ 3.9 µg/mL) | 19 ± 0.5 |  |  |  |  |
| O=C(O)CC[N+](=O)[O-] [3-NP, 3-nitropropionic acid, reference compound] |  |  |  |  |  |  |  |  |  |  |  |  |  |  |  |  | 25 ± 4.1 |  |  |  |  |
| NNC(=O)c1ccncc1 [INH, isoniazid, reference compound] |  |  | 0.5 to 1 (≈ 0.0686 to 0.137 µg/mL) | 0.5 to 1 (≈ 0.0686 to 0.137 µg/mL) |  |  |  |  | ≥ 250 | ≥ 250 |  |  |  |  |  |  | 0 |  |  |  | MIC ([1]; time not stated, read-out: MIC against M. tuberculosis): 1 µM (≈ 0.137 µg/mL); MIC ([3]; 235/80, 168 h): > 250 µM; MIC ([3]; 235/80, 336 h): > 250 µM; MIC ([3]; 235/80, 504 h): > 250 µM; MIC ([4]; 168 h): 2 to 4 µM (≈ 0.274 to 0.549 µg/mL); MIC ([4]; 336 h): 4 to 8 µM (≈ 0.549 to 1.1 µg/mL); MIC ([4]; 504 h): 8 to 16 µM (≈ 1.1 to 2.19 µg/mL) |
| Nc1ccc(C(=O)O)c(O)c1 [PAS, p-aminosalicylic acid, reference compound] |  |  | 62.5 (≈ 9.57 µg/mL) | 62.5 (≈ 9.57 µg/mL) |  |  |  |  | 32 (≈ 4.9 µg/mL) | 125 (≈ 19.1 µg/mL) |  |  |  |  |  |  |  |  |  |  | MIC ([3]; 235/80, 168 h): 125 µM (≈ 19.1 µg/mL); MIC ([3]; 235/80, 336 h): 1000 µM (≈ 153 µg/mL); MIC ([3]; 235/80, 504 h): > 1000 µM; MIC ([4]; 168 h): 32 µM (≈ 4.9 µg/mL); MIC ([4]; 336 h): 125 µM (≈ 19.1 µg/mL); MIC ([4]; 504 h): 500 µM (≈ 76.6 µg/mL) |
